# Assay results: patent publication US9394549B2, “Method for producing useful chemical substance from terephthalic acid potassium salt” (GENARIS, INC., priority 2012, dated 2016)
# Tests used:
# [1] = test system: recombinant Escherichia coli strain M7032 (pUXPEaLT_tphA2A3A1_tpaK); experiment: Production of TPA-DHD from terephthalic acid salt in jar fermentor culture; type: cell-based; details: for Ratio of the capacity in production (TPA-DHD): disodium terephthalate as 100%
# Procedure: Based on the results of Example 1, on the basis of terephthalic acid, potassium hydroxide, sodium hydroxide, 28% ammonium solution and distilled water, 0.6 M dipotassium terephthalate aqueous solution, 0.6 M 1-potassium 4-sodium terephthalate aqueous solution, 0.6 M 1-potassium 4-ammonium terephthalate aqueous solution, and 0.6 M disodium terephthalate aqueous solution were prepared 500 mL each. 30 ml of these terephthalic acid salt solutions and 7 g of glucose were mixed to prepare a glucose and substrate mixed solution.
# A TPA-DHD production plasmid pUXPEaLT_tphA2A3A1_tpaK constructed in Reference Example 3 was introduced into Escherichia coli M7032 strain (obtained from CGSC of Yale University) by a transformation method to obtain a recombinant Escherichia coli strain M7032 (pUXPEaLT_tphA2A3A1_tpaK).
# This transformant was cultured in 1 ml of LB liquid medium (10 g/l tryptone (manufactured by Difco), 5 g/l dried yeast extract (manufactured by Difco), 10 g/l sodium chloride) containing ampicillin at a final concentration of 100 mg/1 overnight. Next, merely 1% of this overnight culture was inoculated in 10 ml of F6.6W/P100/G2 medium containing ampicillin at a final concentration of 100 mg/I and cultured at 30° C. for 24 hours.
# Next, in order to carry out main culture based on this preculture, 65 ml of F6.6W/P10/G1 medium which is a main culture medium was put in an octuple mini jar fermentor (manufactured by ABLE Corporation) and adjusted to 30.2° C.±0.2 and pH 6.9±0.1.
# The aeration condition of the jar fermentor culture was adjusted to 1 vvm and the adjustment of the pH of the culture was carried out using an ammonium solution and sulfuric acid. Further, dissolved oxygen in the culture solution was regulated as a saturated oxygen concentration of 100% and controlled with the revolution of stirring blade such that the dissolved oxygen is maintained at 15%, which dissolved oxygen decreasing as bacterial cells grow.
# In a main culture medium, 0.1% of preculture was inoculated and cultured in the above condition. When the bacterial cell turbidity reached about 7 at an absorbance of 600 nm, an inducer, m-toluic acid was added such that the final concentration thereof was 1 mM to express a terephthalate 1,2-dioxygenase protein, terephthalate 1,2-dioxygenase reductase protein, and terephthalic acid transporter protein. The glucose concentration was measured with time. When the glucose concentration reached 0, the glucose and substrate mixed solution was administered.
# Each of the samples was subjected to analysis in conditions shown in Table 1 by an LC-TOF type mass spectrometer (Waters Corporation, LCT Premier XE). Identification of terephthalic acid was carried out with a combination of retention time of high performance liquid chromatography and an accurate mass value from the mass spectrometer, comparing to a standard sample of terephthalic acid. Among substances appeared as terephthalic acid decreased, TPA-DHD was identified on the basis of a predicted accurate mass value of TPA-DHD. Further, quantification of TPA-DHD was carried out on the basis of a calibration curve prepared from an amount of terephthalic acid decreased and an increase in the peak area of TPA-DHD.
# First, 0.6 M dipotassium terephthalate aqueous solution and 0.6 M disodium terephthalate aqueous solution, both of which were prepared in Example 2, were mixed at a ratio of 0:100, 20:80, 25:75, 30:70, 35:65, and 50:50 to prepare each aqueous solution of the terephthalic acid salts. These terephthalic acid salt solutions 30 ml and glucose 7 g were mixed to obtain glucose and substrate mixed solutions.
# Using these glucose and substrate mixed solutions, the capacity of recombinant Escherichia coli strain M7032 (pUXPEaLT_tphA2A3A1_tpaK) in production of TPA-DHD was examined by the same method as the method of Example 2. […]
# [2] = Solubility of terephthalic acid salts in ethylene glycol; type: physicochemical; details: for concentration of terephthalate in saturated ethylene glycol solvent: heated at 100° C. for 60 minutes, cooled to 30° C. or less, filtered; for solubility: organic solvent or mixture, same method as Example 1
# Procedure: 4.15 g of terephthalic acid (0.025 mol) was placed in a 200 mL glass beaker and then 0.050 mol of potassium hydroxide (in a form of granule), 0.050 mol of sodium hydroxide (in a form of granule), or 0.025 mol of potassium hydroxide, and 0.025 mol of sodium hydroxide were placed thereto. Ethylene glycol was filled to obtain a volume of about 100 mL. The resulting mixture was covered with aluminum foil as a lid, heated at 100° C. for 60 minutes while stirred by a hot stirrer, and allowed to cool to 30° C. or less. These solutions were filtered with a filter paper (Grade 540 manufactured by Whatman) to obtain an ethylene glycol solvent saturated with the terephthalate.
# The concentration of each of the terephthalates contained in such a solvent was 0.23 M in a dipotassium terephthalate saturated solution, 0.11 M in a disodium terephthalate saturated solution, and 0.20 M in a 1-potassium 4-sodium terephthalate saturated solution.
# [3] = Solubility of terephthalic acid salts in 1-butanol; type: physicochemical; details: organic solvent or mixture, same manner as Example 1
# Source text: As just seen above, it was found out that, unlike the dissolution in ethylene glycol, the dissolution in 1-butanol was very poor.
# [4] = 0.6 M salt solution as raw material, 48 hours after the start of the main culture
# [5] = salt from PET in 1-butanol, 35 hours
# [6] = salt obtained by depolymerization of PET in 1-butanol (Example 9), 0.6M, 35 hours
# [7] = salt obtained by depolymerization of PTT (Example 7), 0.6M, 48 hours
Compound,"TPA-DHD [1, 4]",Ratio of the capacity in production (TPA-DHD) ([1]; 48 hours),solubility in ethylene glycol [2],"Ratio of the capacity in production (TPA-DHD) [1, 5]","Ratio of the capacity in production (TPA-DHD) ([1]; salt from PTT, 48 hours)","TPA-DHD [1, 6]","TPA-DHD [1, 7]",concentration of terephthalate in saturated ethylene glycol solvent [2],solubility [2],solubility [3]
N.O=C([O-])c1ccc(C(=O)O)cc1.[K+] [1-potassium 4-ammonium terephthalate],12.2 g/L,126%,–,–,–,–,–,–,–,–
O=C([O-])c1ccc(C(=O)[O-])cc1.[K+].[Na+] [1-potassium 4-sodium terephthalate],10.7 g/L,110%,205 mM,116%,112%,14.8 g/L,14.3 g/L,–,–,–
"O=C([O-])c1ccc(C(=O)[O-])cc1.[K+].[K+] [Dipotassium terephthalate, dipotassium terephthalate]",11.3 g/L,116%,–,136%,138%,17.4 g/L,17.7 g/L,0.23 M,231 mM,200 µM
"O=C([O-])c1ccc(C(=O)[O-])cc1.[Na+].[Na+] [Disodium terephthalate, disodium terephthalate, reference compound]",9.7 g/L,100%,–,100%,100%,12.8 g/L,12.8 g/L,0.11 M,109 mM,1900 µM
